Source: US20170035894A1, “DRUG DELIVERY CONJUGATES FOR TREATING RESISTANT CANCER AND FOR USE IN COMBINATION THERAPY” (ENDOCYTE, INC., priority 2014, published 2017)
pIC50: −log10 of the molar value. Where a name gives a salt, the structure may show the parent alone.

How the values were obtained:
LU1147 NSCLC tumors = assay: Huprime NSCLC PDX tumor model; format: in vivo, Balb/c nu/nu mice; conditions: Docetaxel 15 mg/kg (one dose)
Description: (§1) Female Balb/c nu/nu mice were fed ad libitum with folate-deficient chow (Harlan diet #TD01013) for the duration of the experiment. Primary human NSCLC models LU1147 or LU2505 fragments (2-4 mm in diameter) were inoculated subcutaneously at the right flank of each mouse. Mice were randomized into experimental groups of 7 mice and test articles were injected through the lateral tail vein under sterile conditions in a volume of 200 μL of phosphate-buffered saline (PBS). These studies were performed at Crown Bioscience (Beijing) Inc., Ground Floor, Light Muller Building, Changping Sector of Zhongguancun Scientific Park, No. 21 Huoju Road, Changping District, Beijing, P.R. China.
(§2) Growth of each s.c. tumor was followed by measuring the tumor two times per week until a volume of 1200 mm^3 was reached. Tumors were measured in two perpendicular directions using Vernier calipers, and their volumes were calculated as 0.5×L×W^2, where L=measurement of longest axis in mm and W=measurement of axis perpendicular to L in mm.

LU2505 NSCLC tumors = assay: Huprime NSCLC PDX tumor model; format: in vivo, Balb/c nu/nu mice; conditions: Docetaxel 15 mg/kg (one dose)
Description: as §1, §2

[1] = Toxicity as measured by weight loss / gross animal toxicity in tumor-bearing mice; conditions: for Toxicity Avg. Weight Loss / Toxicity Deaths (%): TIW, 2 weeks
Description: METHOD. Toxicity as Measured by Weight Loss. The percentage weight change of the test animals was determined on selected days post-tumor inoculation (PTI), and during dosing. The results were graphed.
(§3) Evaluation. Tumor size was monitored and body weight measured 3 times/week. Attention was given to gross animal morphology and behavior. Euthanasia was performed if the mice lost >20% of weight or when the tumors reached a size of 1500 mm3. Euthanasia was also performed at the researcher's discretion if mice lost a lot of weight in a short duration or when mice were approaching moribund conditions. Blood samples were collected by cardiac puncture from all viable animals from selected cohorts. Heart, lungs, liver, spleen, kidney, intestines, bone, brain and muscle were obtained immediately after euthanasia. The tissues were removed and stored in 10% neutral-buffered formalin.

KB tumors = assay: Inhibition of tumor growth, s.c. KB tumors; format: in vivo, nu/nu mice; conditions: for CR (%) / Cures (%) / PR (%): TIW, 2 weeks
Description: METHOD. Inhibition of Tumor Growth in Mice. Four to seven week-old mice (Balb/c or nu/nu strains) were purchased from Harlan Sprague Dawley, Inc. (Indianapolis, Ind.). Normal rodent chow contains a high concentration of folic acid (6 mg/kg chow); accordingly, test animals were maintained on a folate-free diet (Harlan diet #TD00434) for about 1 week before tumor implantation to achieve serum folate concentrations close to the range of normal human serum, and during the Method. For tumor cell inoculation, 1×10^6 M109 cells (a syngeneic lung carcinoma) in Balb/c strain, or 1×10^6 KB cells in nu/nu strain, in 100 μL were injected in the subcutis of the dorsal medial area (right axilla). Tumors were measured in two perpendicular directions every 2-3 days using a caliper, and their volumes were calculated as 0.5×L×W^2, where L=measurement of longest axis in mm and W=measurement of axis perpendicular to L in mm.
Dosing solutions were prepared fresh each day in PBS and administered through the lateral tail vein of the mice.
Tumor implantation. KB tumor cells were grown in folate-deficient RPMI 1640 with 5% FBS at 37° C. in a 5% CO2 humidified atmosphere. KB (1×10^6 cells per animal) tumor cells were inoculated subcutaneously […] post start of the folate deficient diet. Mice were dosed after the tumors reached between 100-150 mm3.
Preparation of dosing drug solutions. Dosing solutions were prepared when dosing began by weighing appropriate amounts of each compound, reconstituting in PBS, pH 7.4, sterile filtering the drug solution through a 0.22 µm PVDF syringe filter, and freezing aliquots for each day of dosing at −20° C.
as §3
For example, a 50% decrease in tumor volume from the initial measurement represents a partial response.
For example, a decrease in tumor volume where the measurements in two perpendicular directions are each about 2 mm or less represents a complete response.

ST502 tumors = assay: TNBC PDX tumor model; format: in vivo, Balb/c nu/nu mice; conditions: Eribulin mesylate 1 mg/kg once a week for two weeks
Description: (§4) Female Balb/c nu/nu mice were fed ad libitum with folate-deficient chow (Harlan diet #TD01013) for the duration of the experiment. Primary human Endometrial model ST040, TNBC models 5T502 and ST738 and Ovarian model ST024 fragments (2-4 mm in diameter) were inoculated subcutaneously at the right flank of each mouse. Mice were randomized into 6 experimental groups of 5 or 3 mice each and test articles were injected through the lateral tail vein under sterile conditions in a volume of 200 μL of phosphate-buffered saline (PBS).
as §2

ST738 tumors = assay: TNBC PDX tumor model; format: in vivo, Balb/c nu/nu mice; conditions: Eribulin mesylate 1 mg/kg once a week for two weeks
Description: as §4, §2

[2] = Cytotoxicity of unconjugated drugs to cells in culture; format: cell-based; conditions: cells in culture; unconjugated drug; read-out: typical IC50, cytotoxic to cells in culture
cells in culture = assay: as above; format: cell-based; conditions: unconjugated drug; read-out: typical IC50, cytotoxic to cells in culture
ST040 tumors = assay: Endometrial PDX tumor model; format: in vivo, Balb/c nu/nu mice; conditions: Paclitaxel 15 mg/kg once a week for two weeks
Description: as §4, §2

ST024 tumors = assay: Ovarian PDX tumor model; format: in vivo, Balb/c nu/nu mice; conditions: Paclitaxel 15 mg/kg once a week for two weeks
Description: as §4, §2

[3] = tested on: KB-CR2000 (cisplatin resistant) tumors; assay: Cisplatin-resistant KB-CR2000 tumor model; format: in vivo, mice; conditions: cisplatin 3 mg/kg twice per week, 2 weeks
Source text: METHOD. Human cisplatin-resistant cell line. […] In addition, regrowth of the tumor was only observed in 1/5 test animals.

[4] = Carboplatin 30 mg/kg BIW×2 combined with paclitaxel 10 mg/kg BIW×2
[5] = 1.0 μmol/kg (2 doses, only 2 doses due to toxicity)
[6] = KB tumors, 1.0 μmol/kg (2 doses)
[7] = KB tumors, 0.1 μmol/kg (4 doses)
[8] = KB tumors, 0.2 μmol/kg (3 doses)
[9] = KB tumors, 0.5 μmol/kg (1 dose)

CC(=O)O[C@@]12CO[C@@H]1C[C@H](O)[C@@]1(C)C(=O)[C@H](O)C3=C(C)[C@@H](OC(=O)[C@H](O)[C@@H](NC(=O)OC(C)(C)C)c4ccccc4)C[C@@](O)([C@@H](OC(=O)c4ccccc4)[C@H]21)C3(C)C [docetaxel]
animals exhibiting stable disease (LU1147 NSCLC tumors): 2 animals | CR's (LU2505 NSCLC tumors): 2 | PR's (LU2505 NSCLC tumors): 2 | cures (LU2505 NSCLC tumors): 2 | toxicity ([1]; KB tumors, docetaxel alone 7 mg/kg BIW×3): Mild toxicity

N.N.O=C([O-])C1(C(=O)[O-])CCC1.[Pt+2] [carboplatin, reference compound]
CR's (KB tumors; [4]): 80% | cures (KB tumors; [4]): 20% | toxicity ([1]; KB tumors, carboplatin/paclitaxel study, carboplatin administered alone): Mild toxicity | toxicity ([1]; P-1635 KB tumors, carboplatin alone 50 mg/kg TIW): Mild toxicity

C=C1C[C@@H]2CC[C@@]34C[C@H]5O[C@H]6[C@@H](O3)[C@H]3O[C@H](CC[C@@H]3O[C@H]6[C@H]5O4)CC(=O)C[C@@H]3[C@@H](OC)[C@@H](C[C@H](O)CN)O[C@H]3C[C@H]3O[C@@H](CC[C@@H]1O2)C[C@@H](C)C3=C [Eribulin mesylate, eribulin mesylate, reference compound]
animal exhibiting PR (ST502 tumors): 1 animal | animal exhibiting stable disease (ST502 tumors): 1 animal | PR's (ST738 tumors): 2 | animals exhibiting stable disease (ST738 tumors): 5 animals

CCCC(=O)OCN(C(=O)[C@@H](NC(=O)[C@H]1CCCCN1C)C(C)CC)[C@H](C[C@@H](OC(C)=O)c1nc(C(=O)N[C@@H](Cc2ccc(O)cc2)C[C@H](C)C(=O)NN)cs1)C(C)C (stereo partly shown) [TubB-H, reference compound]
pIC50 [2]: ~9.00 | CR (%) (KB tumors; 0.5 μmol/kg): 0% | Cures (%) (KB tumors; 0.5 μmol/kg): 0% | PR (%) (KB tumors; 0.5 μmol/kg): 0% | CR (%) (KB tumors; 0.75 μmol/kg): 0% | Cures (%) (KB tumors; 0.75 μmol/kg): 0% | PR (%) (KB tumors; 0.75 μmol/kg): 0% | CR (%) (KB tumors; [5]): 0% | Cures (%) (KB tumors; [5]): 0% | PR (%) (KB tumors; [5]): 0% | Toxicity Avg. Weight Loss ([1]; KB tumors, 0.5 μmol/kg): <5.5% | Toxicity Deaths (%) ([1]; KB tumors, 0.5 μmol/kg): 0% | Toxicity Avg. Weight Loss ([1]; KB tumors, 0.75 μmol/kg): >10% | Toxicity Deaths (%) ([1]; KB tumors, 0.75 μmol/kg): 20% | Toxicity Avg. Weight Loss [1, 6]: >15% | Toxicity Deaths (%) [1, 6]: 20%

CCCC(=O)OCN(C(=O)[C@@H](NC(=O)[C@H]1CCCCN1C)[C@@H](C)CC)[C@H](C[C@@H](OC(C)=O)c1nc(C(=O)N[C@@H](Cc2ccc(O)cc2)C[C@H](C)C(=O)O)cs1)C(C)C [Tubulysin B, tubulysin B, reference compound]
pIC50 (cells in culture): ~9.00 | CR (%) (KB tumors; 0.1 μmol/kg (4 doses)): 0% | Cures (%) (KB tumors; 0.1 μmol/kg (4 doses)): 0% | PR (%) (KB tumors; 0.1 μmol/kg (4 doses)): 0% | CR (%) (KB tumors; 0.2 μmol/kg (3 doses)): 0% | Cures (%) (KB tumors; 0.2 μmol/kg (3 doses)): 0% | PR (%) (KB tumors; 0.2 μmol/kg (3 doses)): 0% | CR (%) (KB tumors; 0.5 μmol/kg (1 dose)): 0% | Cures (%) (KB tumors; 0.5 μmol/kg (1 dose)): 0% | PR (%) (KB tumors; 0.5 μmol/kg (1 dose)): 0% | Toxicity Avg. Weight Loss [1, 7]: >20% | Toxicity Deaths (%) [1, 7]: 100% | Toxicity Avg. Weight Loss [1, 8]: >18% | Toxicity Deaths (%) [1, 8]: 100% | Toxicity Avg. Weight Loss [1, 9]: >15% | Toxicity Deaths (%) [1, 9]: 100%

CC(=O)O[C@H]1C(=O)[C@@]2(C)[C@H]([C@H](OC(=O)c3ccccc3)[C@]3(O)C[C@H](OC(=O)[C@H](O)[C@@H](NC(=O)c4ccccc4)c4ccccc4)C(C)=C1C3(C)C)[C@]1(OC(C)=O)CO[C@@H]1C[C@@H]2O [Paclitaxel, paclitaxel, reference compound]
animals exhibiting stable disease (ST040 tumors): zero | anti-tumor activity (ST024 tumors): no anti-tumor activity

N.N.[Cl][Pt][Cl] [cisplatin, reference compound]
partial response (PR) [3]: did not produce even a single partial response

COc1cccc2c1C(=O)c1c(O)c3c(c(O)c1C2=O)C[C@@](O)(C(=O)CO)C[C@@H]3O[C@H]1C[C@H](N)[C@H](O)[C@H](C)O1 [doxorubicin, reference compound]
toxicity ([1]; KB-DR150 tumors, doxorubicin alone, DOXIL 5 mg/kg BIW×2): Mild toxicity
